Data reported in US11691962B2 (eXIthera Pharmaceuticals, Inc., priority 2018, dated 2023).

What was measured:
Format in all cases: biochemical
Factor Xa = Factor Xa (Homo sapiens (Human), UniProt P00742); assay: Dose response assay for protease inhibitors: Factor Xa; conditions: selectivity, Factor Xa over Factor XIa
Procedure: (§1) • Assay buffer: 20 mM Hepes, pH 7.4; 150 mM NaCl; 0.02% Tween 20 • Compounds: 10 mM stocks in DMSO • Substrate: 20 mM Glp-Pro-Arg-AMC, 25 mg/2.3 mL H2O (store at +4° C.) [Factor XIa, thrombin, and trypsin] • 20 mM Pro-Phe-Arg-AMC (Bachem I-1295), 25 mg/2.2 mL H2O • or Boc-Leu-Gly-Arg-AMC (Bachem I-1105), 25 mg/2.07 mL H2O • (store at +4° C.) [Factor Xa] • Enzyme: Factor XIa; 0.25 μM in 50% glycerol (20 μg/mL) • Trypsin; 0.2 μM in 50% glycerol (4.8 μg/mL) • Thrombin; 0.2 μM in 50% glycerol (7.34 μg/mL) • Factor Xa; 0.2 μM in 50% glycerol (9.2 μg/mL) • These stocks are aliquoted (˜100 μL/aliquot) and stored at −20° C. Methods: • 1. Dilute the substrate to 100 μM in assay buffer (30 μL/6 mL). The enzyme is diluted to 0.5 nM just prior to use (12 μL/6 mL for Factor XIa; 15 μL/6 mL for all of the rest.) • 2. Pipette 50 μL of substrate into each well of the 96 well (12×8) microtiter plate. (Column 1 is used as the 100% activity control and receives no compound, and Column 12 is the blank and receives no enzyme.) Add an additional 46 μL to column 2. • 3. Pipette 4 μL of each compound into the appropriate well in column 2 of the plate (unknowns assayed in triplicate, standard assayed in duplicate). The final compound concentration will be […] of the stock. • 4. Serially two-fold dilute the compound by mixing the sample in column 2, removing 50 μL to the next well (column 3), mix and remove to column 4, etc. until column 11. After mixing column 11, remove 50 μL and discard. • 5. Pipette 50 μL of buffer into column 12. Initiate the reaction by adding 50 μL of enzyme solution to each well of columns 1-11 as rapidly as possible. • 6. Read the plate in a spectrophotometer (SpectraMax) at 30° C., wherein each well is measured every 60 s for 30 min. For Factor Xa assays, each well is measured every 1 min for a total of 60 min. • 7. For Factor XIa assays, the compounds are assayed, in duplicate, at 3 different starting concentrations, 20, 2, and 0.2 μM; 1:10, 1:100, and 1:1000 dilution of 10 mM stock or at 2, 0.2, and 0.02 μM; 1:100, 1:1000, and 1:10,000 dilution of 10 mM stock. Data for each concentration are combined for graphing and data fitting. • 8. Data can be used both for estimation of IC50 and for estimation of Kon.

Factor XIa = Factor XIa (Homo sapiens (Human), UniProt P03951); assay: Factor XIa enzyme inhibition assay (dose response, fluorogenic AMC substrate); conditions: read-out: hFXIa IC50
Chain of Factor XIa (P03951 388-625): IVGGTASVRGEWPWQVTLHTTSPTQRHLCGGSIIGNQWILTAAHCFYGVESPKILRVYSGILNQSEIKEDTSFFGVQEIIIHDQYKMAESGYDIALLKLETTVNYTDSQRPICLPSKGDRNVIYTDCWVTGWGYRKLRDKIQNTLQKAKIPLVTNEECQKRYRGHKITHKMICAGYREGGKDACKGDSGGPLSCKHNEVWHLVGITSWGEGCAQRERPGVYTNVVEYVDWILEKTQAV
Chain of Factor XIa (P03951 19-387 partner): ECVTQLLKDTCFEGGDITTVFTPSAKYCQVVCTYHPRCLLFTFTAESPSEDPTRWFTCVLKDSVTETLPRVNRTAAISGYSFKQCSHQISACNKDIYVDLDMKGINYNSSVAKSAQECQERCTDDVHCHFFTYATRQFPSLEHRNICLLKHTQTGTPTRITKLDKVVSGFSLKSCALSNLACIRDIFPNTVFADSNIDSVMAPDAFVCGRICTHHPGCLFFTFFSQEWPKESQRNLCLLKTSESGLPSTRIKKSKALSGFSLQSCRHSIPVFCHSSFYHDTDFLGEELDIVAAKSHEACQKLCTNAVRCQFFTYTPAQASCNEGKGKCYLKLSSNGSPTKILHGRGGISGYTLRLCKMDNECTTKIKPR
Summary of the method: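 Human FXIa at 0.25 nM final with 50 μM final PyroGlu-Pro-Arg-AMC in 20 mM Hepes pH 7.4, 150 mM NaCl, 0.02% Tween 20. Two-fold serial compound dilutions; fluorescence read every minute for 30 min at 30° C. IC50 from a four-parameter Hill fit.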

Thrombin = Thrombin (Homo sapiens (Human), UniProt P00734); assay: Dose response assay for protease inhibitors: thrombin; conditions: selectivity, thrombin over Factor XIa
Procedure: as §1

Trypsin = assay: Dose response assay for protease inhibitors: trypsin; conditions: selectivity, trypsin over Factor XIa
Procedure: as §1

Chain of Factor Xa (P00742 235-488): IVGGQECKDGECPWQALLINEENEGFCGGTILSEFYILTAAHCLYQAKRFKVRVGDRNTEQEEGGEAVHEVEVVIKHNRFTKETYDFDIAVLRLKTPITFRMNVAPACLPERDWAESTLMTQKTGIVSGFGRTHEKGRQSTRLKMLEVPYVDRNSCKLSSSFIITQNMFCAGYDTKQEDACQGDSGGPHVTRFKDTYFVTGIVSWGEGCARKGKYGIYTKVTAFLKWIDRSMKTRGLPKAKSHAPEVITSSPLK
Chain of Factor Xa (P00742 41-179 partner): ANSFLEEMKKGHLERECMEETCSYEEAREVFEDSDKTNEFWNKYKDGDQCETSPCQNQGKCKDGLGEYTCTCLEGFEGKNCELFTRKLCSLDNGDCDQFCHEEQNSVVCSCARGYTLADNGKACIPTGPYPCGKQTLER

CC[C@@H](NC(=O)N1C(=O)[C@H](Cc2ccnc(N)c2)[C@H]1C(=O)N(C)c1cn(C)cn1)c1cccc(Cl)c1 [Compound 1-25, (2S,3R)-3-((2-aminopyridin-4-yl)methyl)-N2-(1-methyl-1H-imidazol-4-yl)-N1-((R)-1-(3-chlorophenyl)propyl)-N2-methyl-4-oxoazetidine-1,2-dicarboxamide]
Ratio: FXa/FXIa (Factor Xa): H (“H” indicates 101-1000)
IC50 (Factor XIa): < 10 nM
Ratio: Thrombin/FXIa (Thrombin): G (“G” indicates 1-100)
Ratio: Trypsin/FXIa (Trypsin): G (“G” indicates 1-100)

CN(C(=O)[C@@H]1[C@@H](Cc2ccnc(N)c2)C(=O)N1C(=O)NCc1cccc(Cl)c1)c1ccn(C)n1 [Compound 1-26, (2S,3R)-3-((2-aminopyridin-4-yl)methyl)-N2-(1-methyl-1H-pyrazol-3-yl)-N1-((3-chlorophenyl)methyl)-N2-methyl-4-oxoazetidine-1,2-dicarboxamide]
Ratio: FXa/FXIa (Factor Xa): H (“H” indicates 101-1000)
IC50 (Factor XIa): 10 to 100 nM
Ratio: Thrombin/FXIa (Thrombin): G (“G” indicates 1-100)
Ratio: Trypsin/FXIa (Trypsin): G (“G” indicates 1-100)

CC[C@@H](NC(=O)N1C(=O)[C@H](Cc2ccnc(N)c2)[C@H]1C(=O)N(C)c1cccs1)c1cccc(Cl)c1 [Compound 1-28, (2S,3R)-3-((2-aminopyridin-4-yl)methyl)-N2-(thiophen-2-yl)-N1-((R)-1-(3-chlorophenyl)propyl)-N2-methyl-4-oxoazetidine-1,2-dicarboxamide]
Ratio: FXa/FXIa (Factor Xa): G (“G” indicates 1-100)
IC50 (Factor XIa): < 10 nM
Ratio: Thrombin/FXIa (Thrombin): H (“H” indicates 101-1000)
Ratio: Trypsin/FXIa (Trypsin): G (“G” indicates 1-100)

CN(C(=O)[C@@H]1[C@@H](Cc2ccnc(N)c2)C(=O)N1C(=O)N[C@@H](c1ccccc1)C(F)(F)F)c1ccn(C)n1 [Compound 1-31, (2S,3R)-3-((2-aminopyridin-4-yl)methyl)-N2-(1-methyl-1H-pyrazol-3-yl)-N1-((S)-1-phenyl-2,2,2-trifluoroethyl)-N2-methyl-4-oxoazetidine-1,2-dicarboxamide]
Ratio: FXa/FXIa (Factor Xa): H (“H” indicates 101-1000)
IC50 (Factor XIa): 10 to 100 nM
Ratio: Thrombin/FXIa (Thrombin): G (“G” indicates 1-100)
Ratio: Trypsin/FXIa (Trypsin): G (“G” indicates 1-100)

CC[C@@H](NC(=O)N1C(=O)[C@H](Cc2ccnc(NC)c2)[C@H]1C(=O)N(C)c1ccn(C)n1)c1cccc(Cl)c1 [Compound 1-37, (2S,3R)-3-((2-methylaminopyridin-4-yl)methyl)-N2-(1-methyl-1H-pyrazol-3-yl)-N1-((R)-1-(3-chlorophenyl)propyl)-N2-methyl-4-oxoazetidine-1,2-dicarboxamide]
Ratio: FXa/FXIa (Factor Xa): H (“H” indicates 101-1000)
IC50 (Factor XIa): 10 to 100 nM
Ratio: Thrombin/FXIa (Thrombin): H (“H” indicates 101-1000)
Ratio: Trypsin/FXIa (Trypsin): G (“G” indicates 1-100)

CC[C@@H](NC(=O)N1C(=O)[C@H](Cc2ccnc(NC)c2)[C@H]1C(=O)N(C)c1cccs1)c1cccc(Cl)c1 [Compound 1-44, (2S,3R)-3-((2-methylaminopyridin-4-yl)methyl)-N2-(thiophen-2-yl)-N1-((R)-1-(3-chlorophenyl)propyl)-N2-methyl-4-oxoazetidine-1,2-dicarboxamide]
Ratio: FXa/FXIa (Factor Xa): H (“H” indicates 101-1000)
IC50 (Factor XIa): < 10 nM
Ratio: Thrombin/FXIa (Thrombin): H (“H” indicates 101-1000)
Ratio: Trypsin/FXIa (Trypsin): G (“G” indicates 1-100)

CC[C@@H](NC(=O)N1C(=O)[C@H](Cc2cc(C)nc(N)c2)[C@H]1C(=O)N(C)c1cn(C)cn1)c1ccccc1 [Compound 1-52, (2S,3R)-3-((2-amino-6-methylpyridin-4-yl)methyl)-N2-(1-methyl-1H-imidazol-4-yl)-N1-((R)-1-phenylpropyl)-N2-methyl-4-oxoazetidine-1,2-dicarboxamide]
Ratio: FXa/FXIa (Factor Xa): H (“H” indicates 101-1000)
IC50 (Factor XIa): 10 to 100 nM
Ratio: Thrombin/FXIa (Thrombin): G (“G” indicates 1-100)
Ratio: Trypsin/FXIa (Trypsin): G (“G” indicates 1-100)

CC[C@@H](NC(=O)N1C(=O)[C@H](Cc2ccnc(N)c2)[C@H]1C(=O)N(C)c1cnn(C)c1)C1CCCCC1 [Compound 1-69, (2S,3R)-3-((2-aminopyridin-4-yl)methyl)-N2-(1-methyl-1H-pyrazol-4-yl)-N1-((R)-1-cyclohexylpropyl)-N2-methyl-4-oxoazetidine-1,2-dicarboxamide]
Ratio: FXa/FXIa (Factor Xa): H (“H” indicates 101-1000)
IC50 (Factor XIa): 10 to 100 nM
Ratio: Thrombin/FXIa (Thrombin): G (“G” indicates 1-100)
Ratio: Trypsin/FXIa (Trypsin): G (“G” indicates 1-100)

CC[C@@H](NC(=O)N1C(=O)[C@H](Cc2ccnc(N)c2)[C@H]1C(=O)N(C)c1cn(C)cn1)C1CCCCC1 [Compound 1-71, (2S,3R)-3-((2-aminopyridin-4-yl)methyl)-N2-(1-methyl-1H-imidazol-4-yl)-N1-((R)-1-cyclohexylpropyl)-N2-methyl-4-oxoazetidine-1,2-dicarboxamide]
Ratio: FXa/FXIa (Factor Xa): I (“I” indicates > 500)
IC50 (Factor XIa): < 10 nM
Ratio: Thrombin/FXIa (Thrombin): G (“G” indicates 1-100)
Ratio: Trypsin/FXIa (Trypsin): G (“G” indicates 1-100)

CC[C@@H](NC(=O)N1C(=O)[C@H](Cc2cc(C)nc(NC)c2)[C@H]1C(=O)N(C)c1cn(C)cn1)c1ccccc1 [Compound 1-72, (2S,3R)-3-((2-methylamino-6-methylpyridin-4-yl)methyl)-N2-(1-methyl-1H-imidazol-4-yl)-N1-((R)-1-phenylpropyl)-N2-methyl-4-oxoazetidine-1,2-dicarboxamide]
Ratio: FXa/FXIa (Factor Xa): H (“H” indicates 101-1000)
IC50 (Factor XIa): 10 to 100 nM
Ratio: Thrombin/FXIa (Thrombin): G (“G” indicates 1-100)
Ratio: Trypsin/FXIa (Trypsin): G (“G” indicates 1-100)

CC[C@@H](NC(=O)N1C(=O)[C@H](Cc2ccnc(N)c2)[C@H]1C(=O)N(C)c1nccn1C)c1ccc(C)cc1 [Compound 1-87, (2S,3R)-3-((2-aminopyridin-4-yl)methyl)-N2-(1-methyl-1H-imidazol-2-yl)-N1-((R)-1-(4-methylphenyl)propyl)-N2-methyl-4-oxoazetidine-1,2-dicarboxamide]
Ratio: FXa/FXIa (Factor Xa): I (“I” indicates > 500)
IC50 (Factor XIa): < 10 nM
Ratio: Thrombin/FXIa (Thrombin): H (“H” indicates 101-1000)
Ratio: Trypsin/FXIa (Trypsin): G (“G” indicates 1-100)

CC[C@@H](NC(=O)N1C(=O)[C@H](Cc2ccnc(N)c2)[C@H]1C(=O)N(C)c1nccn1C)c1ccc(Cl)cc1 [Compound 1-94, (2S,3R)-3-((2-aminopyridin-4-yl)methyl)-N2-(1-methyl-1H-imidazol-2-yl)-N1-((R)-1-(4-chlorophenyl)propyl)-N2-methyl-4-oxoazetidine-1,2-dicarboxamide]
Ratio: FXa/FXIa (Factor Xa): H (“H” indicates 101-1000)
IC50 (Factor XIa): < 10 nM
Ratio: Thrombin/FXIa (Thrombin): H (“H” indicates 101-1000)
Ratio: Trypsin/FXIa (Trypsin): G (“G” indicates 1-100)

CC[C@@H](NC(=O)N1C(=O)[C@H](Cc2ccnc(N)c2)[C@H]1C(=O)N(C)c1nccn1C)c1ccc(OC(F)(F)F)cc1 [Compound 1-97, (2S,3R)-3-((2-aminopyridin-4-yl)methyl)-N2-(1-methyl-1H-imidazol-2-yl)-N1-((R)-1-(4-trifluoromethoxyphenyl)propyl)-N2-methyl-4-oxoazetidine-1,2-dicarboxamide]
Ratio: FXa/FXIa (Factor Xa): H (“H” indicates 101-1000)
IC50 (Factor XIa): 10 to 100 nM
Ratio: Thrombin/FXIa (Thrombin): H (“H” indicates 101-1000)
Ratio: Trypsin/FXIa (Trypsin): G (“G” indicates 1-100)

CC[C@@H](NC(=O)N1C(=O)[C@H](Cc2ccnc(N)c2)[C@H]1C(=O)N(C)c1nccn1C)c1ccc(F)cc1 [Compound 1-98, (2S,3R)-3-((2-aminopyridin-4-yl)methyl)-N2-(1-methyl-1H-imidazol-2-yl)-N1-((R)-1-(4-fluorophenyl)propyl)-N2-methyl-4-oxoazetidine-1,2-dicarboxamide]
Ratio: FXa/FXIa (Factor Xa): I (“I” indicates > 500)
IC50 (Factor XIa): < 10 nM
Ratio: Thrombin/FXIa (Thrombin): H (“H” indicates 101-1000)
Ratio: Trypsin/FXIa (Trypsin): G (“G” indicates 1-100)
